This is an account of results in patent publication US10745382B2 (BRISTOL-MYERS SQUIBB COMPANY, priority 2015, dated 2020).

For orientation: IC50 means the concentration that gives 50% inhibition.

In the first experiment the target is T1, PD-1/PD-L1 (Homo sapiens, UniProt Q9NZQ7).
T1 construct: made in house; host or cells: HEK293T
T1 sequence (Q9NZQ7 with tags, fused parts or gaps): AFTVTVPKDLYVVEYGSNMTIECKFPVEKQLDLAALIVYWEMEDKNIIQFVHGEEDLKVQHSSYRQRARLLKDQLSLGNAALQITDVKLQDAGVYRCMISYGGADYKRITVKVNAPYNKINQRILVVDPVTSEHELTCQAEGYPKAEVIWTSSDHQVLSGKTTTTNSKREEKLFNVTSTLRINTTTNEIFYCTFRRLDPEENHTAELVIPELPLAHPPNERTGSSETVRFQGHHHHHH
Description: PD-1/PD-L1 Homogenous Time-Resolved Fluorescence (HTRF) binding assay. Particulars: PD-L1-His 10 nM, PD-1-Ig 20 nM; numeric IC50; read-out: Range or IC50. The method, boiled down:
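Read-out is time-resolved FRET between europium cryptate-labelled anti-Ig (1 nM final) and APC-labelled anti-His (20 nM final), both dispensed onto the binding mix. Assay buffer: dPBS containing 0.1% bovine serum albumin and 0.05% Tween-20.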
(TR-FRET usually uses a lanthanide donor and a delayed reading to cut background.)
`Cc1c(COc2cc(OCc3cncc(C#N)c3)c(CNC(CO)CO)cc2Cl)cccc1-c1cccc(OCCCN2CCCCC2)c1C` [Example 2291, 5-((4-chloro-2-(((1,3-dihydroxypropan-2-yl)amino)methyl)-5-((2,2′-dimethyl-3′-(3-(piperidin-1-yl)propoxy)-[1,1′-biphenyl]-3-yl)methoxy)phenoxy)methyl)nicotinonitrile]: the 50% inhibitory concentration (IC50) was 1.9 nM.

The same experiment, now with this note: PD-L1-His 10 nM, PD-1-Ig 20 nM; value given as range class; read-out: Range or IC50.
In the case of `Cc1c(COc2cc(OCc3cncc(C#N)c3)c(CNC(CO)(CO)CO)cc2Cl)cccc1-c1cccc(OCCCN2CC[C@@H](O)C2)c1C` [Example 2285, (R)-5-((4-chloro-2-(((1,3-dihydroxy-2-(hydroxymethyl)propan-2-yl)amino)methyl)-5-((3′-(3-(3-hydroxypyrrolidin-1-yl)propoxy)-2,2′-dimethyl-[1,1′-biphenyl]-3-yl)methoxy)phenoxy)methyl)nicotinonitrile], the half-inhibitory concentration (IC50) is 0.21 to 10 nM.

On to `Cc1c(COc2cc(OCc3cncc(C#N)c3)c(CN[C@@](C)(CO)C(=O)O)cc2Cl)cccc1-c1cccc(OCCCNC[C@H](O)CO)c1C` [Example 2286, (S)-2-((5-chloro-2-((5-cyanopyridin-3-yl)methoxy)-4-((3′-(3-(((S)-2,3-dihydroxypropyl)amino)propoxy)-2,2′-dimethyl-[1,1′-biphenyl]-3-yl)methoxy)benzyl)amino)-3-hydroxy-2-methylpropanoic Acid], for which the 50% inhibitory concentration (IC50) lay within 0.21 to 10 nM. Turning to `Cc1c(COc2cc(OCc3cncc(C#N)c3)c(CNC(C)(CO)CO)cc2Cl)cccc1-c1cccc(OCCCN2CCCCC2)c1C` [Example 2287, 5-((4-chloro-2-(((1,3-dihydroxy-2-methylpropan-2-yl)amino)methyl)-5-((2,2′-dimethyl-3′-(3-(piperidin-1-yl)propoxy)-[1,1′-biphenyl]-3-yl)methoxy)phenoxy)methyl)nicotinonitrile], the IC50 lay in the range of 0.21 to 10 nM. `Cc1c(COc2cc(OCc3cncc(C#N)c3)c(CNC(C)(CO)CO)cc2Cl)cccc1-c1cccc(OCCCN2CCC(CO)CC2)c1C` [Example 2288, 5-((4-chloro-2-(((1,3-dihydroxy-2-methylpropan-2-yl)amino)methyl)-5-((3′-(3-(4-(hydroxymethyl)piperidin-1-yl)propoxy)-2,2′-dimethyl-[1,1′-biphenyl]-3-yl)methoxy)phenoxy)methyl)nicotinonitrile]: the IC50 was in the range of 0.21 to 10 nM. The same measure, in the same setting: with `Cc1c(COc2cc(OCc3cncc(C#N)c3)c(CNC(C)(CO)CO)cc2Cl)cccc1-c1cccc(OCCCN2CCC[C@@H](CO)C2)c1C` [Example 2289, (R)-5-((4-chloro-2-(((1,3-dihydroxy-2-methylpropan-2-yl)amino)methyl)-5-((3′-(3-(3-(hydroxymethyl)piperidin-1-yl)propoxy)-2,2′-dimethyl-[1,1′-biphenyl]-3-yl)methoxy)phenoxy)methyl)nicotinonitrile] the figure was 0.21 to 10 nM.

For the compound `CC(=O)N[C@@H]1CCN(CCCOc2cccc(-c3cccc(COc4cc(OCc5cncc(C#N)c5)c(CNC(C)(CO)CO)cc4Cl)c3C)c2C)C1` [Example 2290, (R)—N-(1-(3-((3′-((2-chloro-5-((5-cyanopyridin-3-yl)methoxy)-4-(((1,3-dihydroxy-2-methylpropan-2-yl)amino)methyl)phenoxy)methyl)-2,2′-dimethyl-[1,1′-biphenyl]-3-yl)oxy)propyl)pyrrolidin-3-yl)acetamide], the IC50 lay within 0.21 to 10 nM.

For `Cc1c(COc2cc(OCc3cncc(C#N)c3)c(CNC(CO)CO)cc2Cl)cccc1-c1cccc(OCCCN2CCC[C@@H](CO)C2)c1C` [Example 2292, (R)-5-((4-chloro-2-(((1,3-dihydroxypropan-2-yl)amino)methyl)-5-((3′-(3-(3-(hydroxymethyl)piperidin-1-yl)propoxy)-2,2′-dimethyl-[1,1′-biphenyl]-3-yl)methoxy)phenoxy)methyl)nicotinonitrile], the IC50 fell in the range of 0.21 to 10 nM. Still for that read-out and setting: for `Cc1c(COc2cc(OCc3cncc(C#N)c3)c(CNC(CO)CO)cc2Cl)cccc1-c1cccc(OCCCNC[C@H](O)CO)c1C` [Example 2293, (S)-5-((4-chloro-2-(((1,3-dihydroxypropan-2-yl)amino)methyl)-5-((3′-(3-((2,3-dihydroxypropyl)amino)propoxy)-2,2′-dimethyl-[1,1′-biphenyl]-3-yl)methoxy)phenoxy)methyl)nicotinonitrile] the value was 0.21 to 10 nM; for `Cc1c(COc2cc(OCc3cncc(C#N)c3)c(CNC(CO)CO)cc2Cl)cccc1-c1cccc(OCCCN2CCC(CO)CC2)c1C` [Example 2294, 5-((4-chloro-2-(((1,3-dihydroxypropan-2-yl)amino)methyl)-5-((3′-(3-(4-(hydroxymethyl)piperidin-1-yl)propoxy)-2,2′-dimethyl-[1,1′-biphenyl]-3-yl)methoxy)phenoxy)methyl)nicotinonitrile], 0.21 to 10 nM. The same measure, in the same setting: for `Cc1c(COc2cc(OCc3cncc(C#N)c3)c(CNC(C)(CO)CO)cc2Cl)cccc1-c1cccc(OCCCN2CCC[C@H](CO)C2)c1C` [Example 2295, (S)-5-((4-chloro-2-(((1,3-dihydroxy-2-methylpropan-2-yl)amino)methyl)-5-((3′-(3-(3-(hydroxymethyl)piperidin-1-yl)propoxy)-2,2′-dimethyl-[1,1′-biphenyl]-3-yl)methoxy)phenoxy)methyl)nicotinonitrile] the value was 0.21 to 10 nM; for `Cc1c(COc2cc(OCc3cncc(C#N)c3)c(CNC(CO)CO)cc2Cl)cccc1-c1cccc(OCCCN2CCC[C@H](CO)C2)c1C` [Example 2296, (S)-5-((4-chloro-2-(((1,3-dihydroxypropan-2-yl)amino)methyl)-5-((3′-(3-(3-(hydroxymethyl)piperidin-1-yl)propoxy)-2,2′-dimethyl-[1,12′-biphenyl]-3-yl)methoxy)phenoxy)methyl)nicotinonitrile], 0.21 to 10 nM. Same read-out and setting: for `Cc1c(COc2cc(OCc3cncc(C#N)c3)c(CNC(C)(CO)CO)cc2Cl)cccc1-c1cccc(OCCCNC[C@H](O)CO)c1C` [Example 2297, (S)-5-((4-chloro-2-(((1,3-dihydroxy-2-methylpropan-2-yl)amino)methyl)-5-((3′-(3-((2,3-dihydroxypropyl)amino)propoxy)-2,2′-dimethyl-[1,1′-biphenyl]-3-yl)methoxy)phenoxy)methyl)nicotinonitrile] the value was 0.21 to 10 nM; for `Cc1c(OCCCN2CC[C@H](CO)[C@H](O)C2)cccc1-c1cccc(COc2cc(OCc3cncc(C#N)c3)c(CNC(CO)CO)cc2Cl)c1Cl` [Example 2298, 5-((4-chloro-5-((2-chloro-3′-(3-((3S,4R)-3-hydroxy-4-(hydroxymethyl)piperidin-1-yl)propoxy)-2′-methyl-[1,1′-biphenyl]-3-yl)methoxy)-2-(((1,3-dihydroxypropan-2-yl)amino)methyl)phenoxy)methyl)nicotinonitrile], 0.21 to 10 nM. Turning to `Cc1c(OCCCNC[C@H](O)CO)cccc1-c1cccc(COc2cc(OCc3cncc(C#N)c3)c(CNC(CO)CO)cc2Cl)c1Cl` [Example 2299, (S)-5-((4-chloro-5-((2-chloro-3′-(3-((2,3-dihydroxypropyl)amino)propoxy)-2′-methyl-[1,1′-biphenyl]-3-yl)methoxy)-2-(((1,3-dihydroxypropan-2-yl)amino)methyl)phenoxy)methyl)nicotinonitrile], the half-inhibitory concentration (IC50) is 0.21 to 10 nM.
